Experimental data reported in US20230053688A1, “METHODS TO ALTER LATENCY IN EBV+ MALIGNANCIES” (Cornell University, priority 2020, published 2023).
Where a name gives a salt, the structure may show the parent alone. Read-outs that look alike come from different tables or passages of the source.

Tested on: LMP1 expression in Kem I cells
Assay: microbe, parasite or virus in culture
Type: cell-based, EBV
Settings: for fold induction at 2.5 µM: human gammaherpesvirus 4, 48 h
[1] = Kem I cells, 2.5 uM, 48 hours, average of replicates 1 and 2
[2] = Kem I cells, 2.5 uM, 48 hours, fold change in LMP1 transcript vs vehicle
[3] = read-out: Average LMP1 Fold Increase, Kem I cells, 2.5 uM, 48 hours, average of replicates 1 and 2
[4] = read-out: Replicate 1-LMP1 Fold Increase, Kem I cells, 2.5 uM, 48 hours, fold change in LMP1 transcript vs vehicle
[5] = read-out: Replicate 2-LMP1 Fold Increase, Kem I cells, 2.5 uM, 48 hours, fold change in LMP1 transcript vs vehicle
[6] = Kem I cells, dose 2.5 uM, 48 hours, LMP1 transcript by in-well qRT-PCR, average of the two replicates
[7] = Kem I cells, dose 2.5 uM, 48 hours, LMP1 transcript by in-well qRT-PCR, screen replicate 1
[8] = Kem I cells, dose 2.5 uM, 48 hours, LMP1 transcript by in-well qRT-PCR, screen replicate 2

Row | Compound | Average LMP1 Fold Increase [1] | Replicate 1-LMP1 Fold Increase [2] | Replicate 2-LMP1 Fold Increase [2] | further results
1 | O=C(c1cn(Cc2cncn2Cc2ccc(Br)cc2)cc1-c1cccc2ccccc12)N1CCOCC1 [LB42708] | 0.31 | 0.46 | 0.16 | –
2 | Cc1c(Cc2ccc3ccccc3n2)c2cc(F)ccc2n1CC(=O)O [OC000459] | – | – | – | fold induction at 2.5 µM [3]: 0.56; fold induction at 2.5 µM [4]: 0.64; fold induction at 2.5 µM [5]: 0.48
3 | CNC(=O)c1cc(Oc2ccc(NC(=O)Nc3ccc(Cl)c(C(F)(F)F)c3)cc2)ccn1 [Sorafenib] | – | – | – | fold induction at 2.5 µM [3]: 0.54; fold induction at 2.5 µM [4]: 0.43; fold induction at 2.5 µM [5]: 0.64
4 | COc1cccc(C=NCCN=Cc2cccc(OC)c2[O-])c1[O-].[Cl-].[Mn+3] [EUK 134] | 0.90 | 0.85 | 0.95 | –
5 | O=C(/C=C\n1cnc(-c2cc(C(F)(F)F)cc(C(F)(F)F)c2)n1)NNc1cnccn1 [KPT-330] | 0.35 | 0.28 | 0.42 | –
6 | CC(C)(C)c1nc(-c2cccc(NS(=O)(=O)c3c(F)cccc3F)c2F)c(-c2ccnc(N)n2)s1 [Dabrafenib (GSK2118436)] | 0.92 | 0.61 | 1.22 | –
7 | C#Cc1cccc(Nc2ncnc3cc(OCCOC)c(OCCO)cc23)c1 [OSI-420] | 0.66 | 0.84 | 0.49 | –
8 | Nc1cccc2c1CN(C1CCC(=O)NC1=O)C2=O (stereo not drawn) [Lenalidomide (CC-5013)] | 1.74 | 1.57 | 1.91 | –
9 | O=C(O)c1ccc(N2C(=O)/C(=C\c3ccc(-c4ccc([N+](=O)[O-])cc4)o3)C=C2c2ccccc2)cc1 [4E1RCat] | 0.71 | 0.30 | 1.12 | –
10 | CC(=O)O[C@H]1C[C@@H]2CC[C@@H]3[C@H](CC[C@@]4(C)[C@H]3C[C@H]([N+]3(C)CCCCC3)[C@@H]4OC(C)=O)[C@@]2(C)C[C@@H]1[N+]1(C)CCCCC1.[Br-].[Br-] [Pancuronium dibromide] | 0.28 | 0.25 | 0.31 | –
11 | CC(C)NCC(O)COc1ccc(COCCOC(C)C)cc1 (stereo not drawn) [Bisoprolol fumarate] | – | – | – | fold induction at 2.5 µM [3]: 1.07; fold induction at 2.5 µM [4]: 0.41; fold induction at 2.5 µM [5]: 1.73
12 | CC1(C)CCC(CN2CCN(c3ccc(C(=O)NS(=O)(=O)c4ccc(NCC5CCOCC5)c([N+](=O)[O-])c4)c(Oc4cnc5[nH]ccc5c4)c3)CC2)=C(c2ccc(Cl)cc2)C1 [ABT-199 (GDC-0199)] | 0.75 | 0.51 | 0.98 | –
13 | COc1cc2c(cc1Cc1cccc(Cl)c1F)c(=O)c(C(=O)O)cn2[C@H](CO)C(C)C [Elvitegravir (GS-9137, JTK-303)] | 1.23 | 1.25 | 1.20 | –
14 | COc1c(C)c(C(=O)c2ccc(N)c(C(=O)[O-])c2)n2ccccc12.[Na+] [SSR128129E] | 0.44 | 0.36 | 0.52 | –
15 | COc1ccc2c(c1)c(C1=C(c3c[nH]c4ccccc34)C(=O)NC1=O)cn2CCCN(C)C [Go 6983] | 0.34 | 0.22 | 0.45 | –
16 | Cc1ccccc1C(=O)Nc1ccc(C(=O)N2CCCC(O)c3cc(Cl)ccc32)c(C)c1 (stereo not drawn) [Tolvaptan] | – | – | – | fold induction at 2.5 µM (read-out: Average LMP1 Fold Increase, Kem I cells, dose 2.5 uM, 48 hours, LMP1 transcript by in-well qRT-PCR, average of the two replicates): 4.67; fold induction at 2.5 µM (read-out: Replicate 1-LMP1 Fold Increase, Kem I cells, dose 2.5 uM, 48 hours, LMP1 transcript by in-well qRT-PCR, screen replicate 1): 1.11; fold induction at 2.5 µM (read-out: Replicate 2-LMP1 Fold Increase, Kem I cells, dose 2.5 uM, 48 hours, LMP1 transcript by in-well qRT-PCR, screen replicate 2): 8.24
17 | CC(/C=C/C(=O)NO)=C\[C@@H](C)C(=O)c1ccc(N(C)C)cc1 [Trichostatin A (TSA)] | – | – | – | Average LMP1 Fold Increase [6]: 88.29 fold; Replicate 1-LMP1 Fold Increase [7]: 44.18 fold; Replicate 2-LMP1 Fold Increase [8]: 132.40 fold
18 | C[C@H](NC(=O)[C@@H](O)c1cc(F)cc(F)c1)C(=O)N[C@@H]1C(=O)N(C)c2ccccc2-c2ccccc21 [LY411575] | 0.36 | 0.41 | 0.31 | –
19 | OG-L002 | 1.15 | 1.03 | 1.27 | –
20 | FC(F)(F)c1ccc(/C=C/c2nc(COc3ccc(CCCCn4ccnn4)cc3)co2)cc1 [Mubritinib (TAK 165)] | – | – | – | Average LMP1 Fold Increase: 0.68; Replicate 1-LMP1 Fold Increase: 0.74; Replicate 2-LMP1 Fold Increase: 0.62
21 | COc1ccc(C(=O)N2CCCC2=O)cc1 [Aniracetam] | – | – | – | fold induction at 2.5 µM [3]: 0.55; fold induction at 2.5 µM [4]: 0.72; fold induction at 2.5 µM [5]: 0.39
22 | COc1cc(N2CCN(C)CC2)ccc1Nc1nccc(-c2cn(C)c3cnccc23)n1 [AZ191] | 0.37 | 0.50 | 0.24 | –

Row | Compound | Average LMP1 Fold Increase [1] | Replicate 1-LMP1 Fold Increase [2] | Replicate 2-LMP1 Fold Increase [2] | further results
23 | COc1cc(OC)c(/C=C/S(=O)(=O)Cc2ccc(OC)c(NCC(=O)O)c2)c(OC)c1 [Rigosertib (ON-01910)] | 0.57 | 0.69 | 0.46 | –
24 | I-BET151 (GSK1210151A) | 1.39 | 1.41 | 1.38 | –
25 | O=[N+]([O-])C=Cc1ccc2c(c1)OCO2 | 1.11 | 0.54 | 1.68 | –
26 | C[C@H](NC(=O)Cc1cc(F)cc(F)c1)C(=O)N[C@@H]1C(=O)N(C)c2ccccc2-c2ccccc21 [YO-01027] | – | – | – | Average LMP1 Fold Increase [6]: 0.35 fold; Replicate 1-LMP1 Fold Increase [7]: 0.44 fold; Replicate 2-LMP1 Fold Increase [8]: 0.27 fold
27 | Cc1ccc2c(=O)c3cccc(CC(=O)O)c3oc2c1C [DMXAA (Vadimezan)] | 0.87 | 0.44 | 1.29 | –
28 | O=C(c1cncc(Br)c1)N1CCC(N2CCCC2)CC1 [UNC669] | – | – | – | Average LMP1 Fold Increase [6]: 0.50 fold; Replicate 1-LMP1 Fold Increase [7]: 0.75 fold; Replicate 2-LMP1 Fold Increase [8]: 0.25 fold
29 | CC(=O)O[C@]1(C(C)=O)CC[C@H]2[C@@H]3C=C(Cl)C4=CC(=O)[C@@H]5C[C@@H]5[C@]4(C)[C@H]3CC[C@@]21C [Cyproterone Acetate] | – | – | – | fold induction at 2.5 µM [3]: 0.26; fold induction at 2.5 µM [4]: 0.27; fold induction at 2.5 µM [5]: 0.24
30 | Cc1cc(Nc2ccc(NC(=O)c3ccc(Nc4ccnc5ccccc45)cc3)cc2)nc(N)n1 [SGI-1027] | 53.53 | 13.12 | 93.95 | –
31 | CCn1c(N)c(C(=O)NC)c(=O)c2ccc(C#C[C@@](C)(O)COC)nc21 [SAR131675] | 0.40 | 0.30 | 0.49 | –
32 | O=C(Nc1ccncc1)c1cc([N+](=O)[O-])ccc1Cl [T0070907] | – | – | – | Average LMP1 Fold Increase [6]: 0.56 fold; Replicate 1-LMP1 Fold Increase [7]: 0.63 fold; Replicate 2-LMP1 Fold Increase [8]: 0.50 fold
33 | CC(C)(C)NC(=O)[C@H]1CC[C@H]2[C@@H]3CC[C@H]4NC(=O)C=C[C@]4(C)[C@H]3CC[C@]12C [Finasteride] | – | – | – | fold induction at 2.5 µM [3]: 0.66; fold induction at 2.5 µM [4]: 0.51; fold induction at 2.5 µM [5]: 0.81
34 | CNC(=O)[C@H](Cc1ccccc1)NC(=O)[C@H](CC(C)C)[C@H](CSc1cccs1)C(=O)NO [Batimastat (BB-94)] | 0.46 | 0.38 | 0.55 | –
35 | Cc1ccc(C(=O)N(CCCN)[C@@H](c2nc3cc(Cl)ccc3c(=O)n2Cc2ccccc2)C(C)C)cc1 [Ispinesib (SB-715992)] | 1.57 | 2.72 | 0.43 | –
36 | COc1cc(N2CCC(N3CCN(C)CC3)CC2)ccc1Nc1ncc(Cl)c(Nc2ccccc2P(C)(C)=O)n1 [AP26113] | – | – | – | fold induction at 2.5 µM [3]: 0.92; fold induction at 2.5 µM [4]: 1.07; fold induction at 2.5 µM [5]: 0.77
37 | COc1ccc(CNCc2cccc3ccccc23)cc1.Cl [ML133 HCl] | 0.54 | 0.42 | 0.67 | –
38 | CCc1nc(N)nc(N)c1-c1ccc(Cl)cc1 [Pyrimethamine] | – | – | – | fold induction at 2.5 µM [3]: 0.8; fold induction at 2.5 µM [4]: 0.7; fold induction at 2.5 µM [5]: 0.9
39 | CCOC(=O)c1cncn1[C@H](C)c1ccccc1 [Etomidate] | – | – | – | fold induction at 2.5 µM [3]: 0.5; fold induction at 2.5 µM [4]: 0.56; fold induction at 2.5 µM [5]: 0.44
40 | O=C1CC(=O)c2c(Cl)c(Cl)c(Cl)c(Cl)c21 [TCID] | – | – | – | Average LMP1 Fold Increase [6]: 0.52 fold; Replicate 1-LMP1 Fold Increase [7]: 0.66 fold; Replicate 2-LMP1 Fold Increase [8]: 0.38 fold
41 | O=C(/C=C/c1ccc(O)c(O)c1)OCCc1ccccc1 [Caffeic Acid Phenethyl Ester] | – | – | – | fold induction at 2.5 µM [3]: 0.46; fold induction at 2.5 µM [4]: 0.59; fold induction at 2.5 µM [5]: 0.33
42 | CCN[C@H]1CN(CCCOC)S(=O)(=O)c2sc(S(N)(=O)=O)cc21 [Brinzolamide] | – | – | – | fold induction at 2.5 µM [3]: 0.21; fold induction at 2.5 µM [4]: 0.23; fold induction at 2.5 µM [5]: 0.2
43 | CCC(=O)Nc1cccc(Oc2nc(Nc3ccc(N4CCN(C)CC4)cc3OC)ncc2Cl)c1 [WZ4003] | – | – | – | Average LMP1 Fold Increase [6]: 0.72 fold; Replicate 1-LMP1 Fold Increase [7]: 0.79 fold; Replicate 2-LMP1 Fold Increase [8]: 0.64 fold
